Like-named read-outs stand apart in the source and are kept apart here.
Legend:
[1] = system: Anopheles gambiae (Giles) ss strain 16CSS female mosquitoes; test: warm body repellence assay (mosquito landings); assay type: in vivo; conditions: for repellent activity in the warm body assay (in words): candidate compounds, initially 1.0-5.0 μg/cm^2 (about 5-31.5 nmole/cm^2); for median repellency (%) at 20 nmol/cm2: read-out: Median Repellency (%)
Experimental: To test the behavior of female mosquitoes to an essential oil containing OBP binding components, a previously described repellence assay [Kröber et al. (2010). An In Vitro Assay for Testing Mosquito Repellents Employing a Warm Body and Carbon Dioxide as a Behavioral Activator. Journal of the American Mosquito Control Association 26(4) 381-386] was conducted that measures the number of mosquito landings on a warm surface onto which an essential oil containing at least one candidate compound was applied.
To conduct a repellency assay, a selected essential oil or ethanol negative control was applied to a warm body at a dose of about 3.8 μg/cm^2 and allowed to dry for 40 seconds in order to allow evaporation of the solvent before introduction into the test cage with mosquitoes. As positive control for repellence, DEET dissolved in ethanol was applied to the warm body at the same dose. The treated warm body in conjunction with a pulse of carbon dioxide was introduced into the test cage containing fifty Anopheles gambiae (Giles) ss strain 16CSS female mosquitoes that were 4-11 days old and the number of mosquito landings on the warm body occurring within a 2-minute period was counted. Each candidate compound was tested in five different cages (i.e., 250 female mosquitoes) in a randomized design, and the ethanol control and up to four candidate compounds were tested in each cage. Raw data on numbers of landings by mosquitoes were analyzed using a linear mixed model accounting for treatment, experimental day, the individual cage, the number of females per cage and the level of the carbon dioxide pulse in ppm using R (R Development Core Team, 2010) and the packages LME4 (Bates and Maechler, Ime4: Linear mixed-effects models using {S4} classes.{R} package version 0.999375-32, 2009) and NLME (Pinheiro et al, nlme: Linear and Nonlinear Mixed Effects Models, 2010; the R Development Core Team, R: A Language and Environment for Statistical Computing, 2010). Repellent values were calculated from counted landings on treatments versus the overall landings on pooled controls.
To test the behavior of female mosquitoes to a candidate compound identified in Example 5, behavioral assays were made using the identified compounds. The repellent assay was performed as described in Example 3, except that candidate compounds were dissolved in ethanol and tested initially at doses between 1.0 and 5.0 μg/cm^2 (about 5-31.5 nmole/cm^2) and, whenever necessary, at lower and/or higher doses as well. Besides the compounds identified in Example 5, compounds related to these were also tested including ethyl-cinnamate and butyl-cinnamate (Table 4).
To test the behavior of female mosquitoes to various combinations of candidate compounds identified in Example 6, repellence assays were made as in Example 3. These repellent assays were made to compare the effectiveness of the strongest repellent compounds identified in Example 6, including, without limitation, carvacrol, ethyl cinnamate, butyl cinnamate, and cumin alcohol with that of DEET.
The doses tested were 2, 4, 6 10 and 20 nmol/cm^2 for the single compounds. The binary 50:50 mixtures were tested at 2, 6, 10 and 20 nmol/cm^2, with each compound making up half the amount tested, so that, for example, the 2 nmol/cm^2 concentration in column A+B represents 1 nmol/cm^2 of A and 1 nmol/cm^2 of B in a binary mixture. DEET was also tested at 25 nmol (top response) and carvacrol was tested at the additional dose of 2.5 nmol (second from left within its column). As an indication, DEET at 20 nmol/cm^2=3.8 μg/cm^2. Mosquitoes were activated using a puff of CO2 from a gas tank upon introduction of the warm body into the test cage containing 50±5 A. gambiae females and mosquito landings were counted for 2 minutes. Each treatment (dose) was tested using five test cages, i.e. on a total of 250 female A. gambiae. […]

[2] = system: female A. gambiae antennae; test: GC-coupled electroantennogram (GC-EAG) recording; design: species or system Anopheles gambiae; conditions: compounds eluting from GC of essential oils
Description: Electrophysiological recordings from whole mosquito antenna: Coupling EAG recordings from an A. gambiae antenna to the effluent of a high-resolution gas chromatographic (GC) column permitted the determination of the elution profiles of biologically active components of essential oils showing repellence. Recordings were made from to 4-9 day-old female mosquitoes. The head was excised at the occipital opening and placed on the reference glass electrode containing Hayes mosquito Ringer [Hayes (1953). Determination of a physiological saline for Aedes aegypti (L.). J Econ Entomol 46: 624-627] mounted in a humidified air-stream (90-98% RH; Guerin and Visser (1980). Electroantennogram Responses of the Carrot Fly, Psila rosae, to Volatile Plant Components. Physiological Entomology 5(2): 111-119] and its antenna exposed to compounds eluting from the GC column (Biessamann et al. (2010). The Anopheles gambiae odorant binding protein 1 (AgamOBP1) mediates indole recognition in the antennae of female mosquitoes. PLoS One 5(3): e9471]. The EAG response was recorded via a glass electrode filled with Kaissling sensillum lymph Ringer [Kaissling (1995). Single unit and electroantennogram recordings in insect olfactory organs. In Experimental Cell Biology of Taste and Olfaction. Current Techniques and Protocols, Spielman AlaB, J. G. (ed), 361-386. Boca Raton, Fla.: CRC Press] brought into contact with the terminal antennal segment whose tip was cut off. Only antennae showing an EAG response at least double the noise level to a 1 ml puff of air over 1 μg geranylacetone in a 5 ml stimulus syringe were used for recording EAG responses to the essential oils.
To conduct a GC-EAG analysis, about 2 μg of an essential oil was injected in 1-3 μL of dichloromethane (DCM) onto an apolar capillary column (95% dimethyl polysiloxan with 5% diphenyl polysiloxan, 15 m long, 0.25 mm i.d., 0.10 μm film thickness; BGB Analytik, Switzerland) installed in a 5300 Carlo Erba Instruments chromatograph. Hydrogen was used as carrier gas with the oven held at 40° C. for 3 minutes then heated up 25° C./min to 230° C. and held at the final temperature for 15 min. The column effluent was split (50:50) between the flame ionization detector (FID) of the chromatograph and the mosquito antennal preparation. The EAG signal was fed into an AC/DC amplifier (×100) via a high impedance preamplifier (×10), recorded on the hard disk of a PC via a 16-bit analogue-digital IDAC4 interface (Syntech, Netherlands) and monitored simultaneously with an oscilloscope (Tektronix 5103, USA). Kovats retention indices (KIs) were calculated for the EAG-active compounds present in the extracts and fractions. FIG. 1 illustrates the results obtained using the GC-EAG analysis. […]

[3] = system: sand fly Lutzomyia longipalpis; test: warm body repellence assay with sand flies; assay type: in vivo; conditions: for Median of landings: 2 minutes, control 48
Experimental: To test the effects of repellent compounds or compositions disclosed herein on other blood-feeding arthropods, a warm body repellence assay (Krober et. al. (2010). An In Vitro Assay for Testing Mosquito Repellents Employing a Warm Body and Carbon Dioxide as a Behavioral Activator. Journal of the American Mosquito Control Association 26(4): 381-386] was conducted using the sand fly Lutzomyia longipalpis (Diptera: Psychodidae), the principal vector of Leishmania (or leismaniasis) in the Americas.
[…] Fifty L. longipalpis sandflies (male:female ratio 1:1) of 3-7 days old were tested during the scotophase under conditions described for A. gambiae in Example 6. The test cages were lined with filter paper. Reduction in the number of landings by L. longipalpis sand fly females on a warm body treated with different test products compared to the control with solvent (ethanol p.a.) alone was used to evaluate repellence. Tests were conducted in complete darkness using IR LEDs to illuminate the warm body. Landings counted during 2 minutes were normalized by experimental day, cage, and number of females by a mixed linear model before testing for differences.

[4] = Anopheles gambiae, 2 min, 20 nmole per cm^2

Compound	repellent activity in the warm body assay (in words) [1]	EAG response of antenna [2]	other results
CC1=CCC2CC1C2(C)C (stereo not drawn) [α-pinene]	only weak or no repellent activity at all	capable of triggering EAG responses	–
CC1=C(C=O)C(C)(C)CC=C1 [safranal]	only weak or no repellent activity at all	capable of triggering EAG responses	–
Cc1ccc(C(C)C)cc1 [p-cymene]	properties suggesting attractant activity	capable of triggering EAG responses	–
C=C1CCC2CC1C2(C)C (stereo not drawn) [β-pinene]	only weak or no repellent activity at all	capable of triggering EAG responses	–
limonene [(−) limonene]	only weak or no repellent activity at all	–	–
CC(C)c1ccc(C(=O)O)cc1 [cuminic acid]	activity comparable to DEET	capable of triggering EAG responses	Median of landings ([3]; 20 nmol/cm^2): 16; Median of landings ([3]; 200 nmol/cm^2): 13; repellence of sand flies from the warm body (in words) ([3]; 20 and 200 nmol/cm^2): as effective as DEET at 20 nmol/cm^2; median repellency (%) at 20 nmol/cm2 [1, 4]: 74.2%
Cc1ccc(C(C)C)c(O)c1 [thymol, 2-Isopropyl-5-methylphenol]	activity comparable to DEET	–	median repellency (%) at 31.5 nmol/cm2 ([1]; Anopheles gambiae, 2 min, 31.5 nmole per cm^2): 89.7%
C=C1CC/C=C(\C)CC[C@@H]2[C@@H]1CC2(C)C [β-caryophyllene]	only weak or no repellent activity at all	capable of triggering EAG responses	–
COC(=O)C=Cc1ccccc1 [methyl-trans-cinnamate, methyl 3-phenylprop-2-enoate]	only weak or no repellent activity at all	capable of triggering EAG responses	median repellency (%) at 20 nmol/cm2 [1, 4]: 14%
C=C(C)[C@@H]1CC=C(C)C(=O)C1 [(−) carvone, carvone]	only weak or no repellent activity at all	–	–
C=C(C)C1CC=C(C)C(=O)C1 (single isomer, unassigned; (+)) [(+) carvone, carvone]	only weak or no repellent activity at all	–	–
CC(C)=C1CCC(C)(O)CC1 (centres unmarked) [γ-terpineol]	–	capable of triggering EAG responses	–
C=CC(C)(O)CCC=C(C)C (centres unmarked) [linalool]	properties suggesting attractant activity	capable of triggering EAG responses	–
C=C(C)[C@H]1CC=C(C)CC1 [(+) limonene, limonene]	only weak or no repellent activity at all	–	–
CC1=CCC(C(C)C)=CC1 [γ-terpinene]	only weak or no repellent activity at all	–	–
CC(C)c1ccc(C=O)cc1 [cumin aldehyde]	only weak or no repellent activity at all	capable of triggering EAG responses	median repellency (%) at 20 nmol/cm2 ([1]; Anopheles gambiae, 2 min): 13.5%
